Laboratory results published in publication PMC6155296, “Screening of Peruvian Medicinal Plants for Tyrosinase Inhibitory Properties: Identification of Tyrosinase Inhibitors in Hypericum laricifolium Juss” (Molecules : A Journal of Synthetic Chemistry and Natural …, 2017).
Where two headings read alike, the source gives them in different places. Each block holds one molecule with its values, some of them ahead of it.

Tests used:
Mushroom tyrosinase [1] = molecular target: T1, Mushroom tyrosinase (Agaricus bisporus, UniProt C7FF04); experiment: Tyrosinase assay (spectrophotometry, L-tyrosine substrate); type: biochemical
T1 sequence (C7FF04 2-392): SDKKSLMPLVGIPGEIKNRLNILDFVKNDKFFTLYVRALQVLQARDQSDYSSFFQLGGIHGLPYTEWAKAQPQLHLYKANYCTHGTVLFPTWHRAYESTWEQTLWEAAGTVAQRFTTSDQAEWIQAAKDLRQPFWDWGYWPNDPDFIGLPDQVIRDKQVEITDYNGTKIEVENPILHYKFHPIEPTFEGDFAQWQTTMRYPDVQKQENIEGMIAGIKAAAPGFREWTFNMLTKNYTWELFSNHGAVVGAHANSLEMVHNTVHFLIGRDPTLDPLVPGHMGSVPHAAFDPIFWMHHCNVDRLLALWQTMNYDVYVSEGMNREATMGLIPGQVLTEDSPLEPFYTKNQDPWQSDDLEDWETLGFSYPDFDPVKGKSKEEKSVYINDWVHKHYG
T1 sequence (G1K3P4 1-150 partner): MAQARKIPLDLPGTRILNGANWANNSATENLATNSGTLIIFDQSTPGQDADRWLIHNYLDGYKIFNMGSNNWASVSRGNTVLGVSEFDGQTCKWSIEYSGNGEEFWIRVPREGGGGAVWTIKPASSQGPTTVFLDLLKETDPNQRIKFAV
Protocol: Tyrosinase activity was determined by spectrophotometry, with minor modifications. First, 80 μL of 0.1 M potassium phosphate buffer (pH 6.6), 20 μL of sample dissolved in dimethyl sulfoxide at the concentrations needed (final concentrations 100–500 μg/mL), and 50 μL of L-tyrosine buffer (1.5 mM) solutions were mixed. Then, 50 μL of mushroom tyrosinase solution (200 unit/mL in phosphate buffer) was added to each mixture, which was then incubated at 25 °C for 15 min.
The results were expressed as mean ± standard deviation (SD), and were repeated three to five times. The inhibitory concentration (IC50) was calculated by log-Probit analysis.

Mushroom tyrosinase [2] = molecular target: T1, Mushroom tyrosinase; experiment: as above; type: biochemical; remark: listed apart in the source
cyclooxygenase-1 (COX-1) = tested on: cyclooxygenase-1 (COX-1); design: method as in PMID 14646327; conditions: in vitro; cited from earlier work

SMILES: O=C(/C=C/c1ccc(O)c(O)c1)O[C@@H]1C[C@](O)(C(=O)O)C[C@@H](O)[C@H]1O [Chlorogenic acid (3), chlorogenic acid]
inhibition at 100 µg/mL (Mushroom tyrosinase [1]): < 1%

inhibition at 100 µg/mL (Mushroom tyrosinase [1]; 100 μg/mL, Table 4, read-out: Inhibition (%)): < 1%
SMILES: O=C(O)/C=C/c1ccc(O)c(O)c1 [Caffeic acid (5), caffeic acid]

SMILES: O=C(O)c1ccc(O)c(O)c1 [Protocatechuic acid (1), protocatechuic acid]
inhibition at 100 µg/mL (Mushroom tyrosinase [1]): < 1%

SMILES: O=C(O)[C@H]1O[C@@H](Oc2c(-c3ccc(O)cc3)oc3cc(O)cc(O)c3c2=O)[C@H](O)[C@@H](O)[C@@H]1O [Kaempferol 3-O-glucuronide (6), kaempferol 3-O-glucuronide]
inhibition at 100 µg/mL (Mushroom tyrosinase [1]): < 1%

SMILES: O=c1c(O)c(-c2ccc(O)cc2)oc2cc(O)cc(O)c12 [Kaempferol (8), kaempferol]
inhibition at 100 µg/mL (Mushroom tyrosinase [1]): 30 ± 1.97%

SMILES: OC[C@H]1O[C@@H](Oc2ccc(O)cc2)[C@H](O)[C@@H](O)[C@@H]1O [Arbutin, arbutin, reference compound]
inhibition at 10 µg/mL (Mushroom tyrosinase [2]): 13.7 ± 1.8%
inhibition at 50 µg/mL (Mushroom tyrosinase [2]): 63.8 ± 0.1%
inhibition at 100 µg/mL (Mushroom tyrosinase [1]): 86 ± 1.6%
inhibition at 500 µg/mL (Mushroom tyrosinase [1]): 98.2 ± 0.9%
inhibition at 500 µg/mL (Mushroom tyrosinase [1]; read-out: Inhibition % (500 μg/mL)): 92.3 ± 2.2%

SMILES: O=C(O)c1ccc(O)cc1 [p-Hydroxybenzoic acid (2), p-hydroxybenzoic acid]
inhibition at 100 µg/mL (Mushroom tyrosinase [1]): 8.3 ± 4.03%

SMILES: O=c1c(O)c(-c2ccc(O)c(O)c2)oc2cc(O)cc(O)c12 [Quercetin (7), quercetin]
inhibition of cyclooxygenase-1 (COX-1) (cyclooxygenase-1 (COX-1)): 52% ± 2
Inhibition (%) (Mushroom tyrosinase [1]; 100 μg/mL, Table 4): 99.7 ± 0.28%
Inhibition (%) (Mushroom tyrosinase [1]; 100 μg/mL, Table 4, listed as quercetin): over 95%

SMILES: COc1cc(C(=O)O)ccc1O [Vanilic acid (4), vanillic acid]
inhibition at 100 µg/mL (Mushroom tyrosinase [1]): < 1%
